Source: patent publication US9481654B2, “Compositions and methods for inhibition of the JAK pathway” (Rigel Pharmaceuticals, Inc., priority 2006, dated 2016)

Key:
Format in all cases: cell-based
[1] = system: primary human T-cells (IL-2 induced proliferation, JAK-1/JAK-3, Stat-5); experiment: Primary Human T-Cell Proliferation Assay Stimulated with IL-2 (CellTiter-Glo); details: Table III Example 4
Procedure, shortened: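 Read-out is intracellular ATP luminescence (CellTiter-Glo) after 72 h at 37 °C of IL-2-driven growth. Cells, pre-stimulated via TCR and CD28 then washed free of IL-2, were resuspended in Yssel's medium, given 80 U/mL IL-2 in the cell suspension plus duplicate compound; unstimulated wells lacked IL-2.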

[2] = system: IL-4 stimulated CD23 upregulation in human Ramos B cells (JAK-1/JAK-3, Stat-6); experiment: Assay for Ramos B-Cell Line Stimulated with IL-4 (CD23 upregulation, FACS); details: Table III Example 3
Procedure, shortened: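 Flow cytometry of CD23 staining after 20-24 h IL-4 stimulation (50 units/mL final) of human Ramos B cells in RPMI with 5% serum. Cells, 5×10^4 per point, received compound or DMSO vehicle for 1 h at 37° C prior to stimulation.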

[3] = system: IFNγ induced ICAM-1 (CD54) up-regulation in U937 human monocytic cells (JAK/Stat pathway); experiment: U937 IFNγ ICAM1 FACS Assay; details: Table III Example 6; 10 ng/mL IFNγ, 18-24 hours
Excerpt: A549 lung epithelial cells and U937 cells up-regulate ICAM-1 (CD54) surface expression in response to a variety of different stimuli. Therefore, using ICAM-1 expression as readout, test compound effects on different signaling pathways can be assessed in the same cell type. Stimulation with IL-1β through the IL-1β receptor activates the TRAF6/NFκB pathway resulting in up-regulation of ICAM-1. IFNγ induces ICAM-1 up-regulation through activation of the JAK1/JAK2 pathway. The up-regulation of ICAM-1 can be quantified by flow cytometry across a compound dose curve and EC50 values are calculated. Exemplary assays of this type are described in greater detail in Examples 5 and 6. U937 human monocytic cells up-regulate ICAM-1 (CD54) surface expression in response to a variety of different stimuli. Therefore, using ICAM-1 expression as readout, compound effects on different signaling pathways can be assessed in the same cell type. IFNγ up-regulates ICAM-1 through activation of the JAK/Stat pathway. In this example, the up-regulation of ICAM-1 by IFNγ was assessed. […] The cells were then plated at a concentration of 100,000 cells per 160 μL in 96 well flat bottom plates. The test compounds were then diluted as follows: 10 mM test compound was diluted 1:5 in DMSO (3 μL 10 mM test compound in 12 μL DMSO), followed by a 1:3 serial dilution of test compound in DMSO (6 μL test compound serially diluted into 12 μL DMSO to give 3-fold dilutions). […] For control wells, 4 μL of DMSO was diluted into 76 μL 10% RPMI. […] The cells and compounds were then pre-incubated for 30 minutes at 37° C. with 5% CO2. […] The cells were kept under conditions for stimulation for 18-24 hours at 37° C. with 5% CO2. […] Cells were spun down at 1000 rpm for 5 minutes at 4° C., following which the supernatant was removed. […] The cells were then incubated on ice in the dark for 30 minutes. […] After suspension, the cells were centrifuged at 1000 rpm for 5 min at 4° C. […] Detection was performed using a BD LSR I System Flow Cytometer, purchased from BD Biosciences of San Jose, Calif. The live cells were gated for live scatter and the geometric mean of ICAM-APC was measured (Becton-Dickinson CellQuest software version 3.3, Franklin Lakes, N.J.). Both % live cells and ICAM-1 expression was analyzed. The assays for the test compounds were carried out in parallel with a control compound of known activity.

Structure (SMILES): CNS(=O)(=O)c1ccc(Nc2ncc(C)c(Nc3ccc(CNS(=O)(=O)C4CC4)cc3)n2)cc1 [Compound I-163, N4-(4-cyclopropylsulfonylaminomethyl)phenyl-5-methyl-N2-(4-methylaminosulfonyl)phenyl-2,4-pyrimidinediamine]
- IC50 [1]: 52.7 nM
- IC50 [2]: 46.7 nM
- IC50 [3]: 143 nM

Structure (SMILES): Cc1cnc(Nc2ccc(S(=O)(=O)NC3CCCC3)cc2)nc1Nc1ccc(CNS(=O)(=O)C2CC2)cc1 [Compound I-166, N2-(4-cyclopentylaminosulfonyl)phenyl-N4-(4-cyclopropylsulfonylaminomethyl)phenyl-5-methyl-2,4-pyrimidinediamine]
- IC50 [1]: 212 nM
- IC50 [2]: 82.5 nM
- IC50 [3]: 280 nM

Structure (SMILES): CCC(=O)N(Cc1ccc(Nc2nc(Nc3ccc(S(N)(=O)=O)cc3)ncc2C)cc1)S(=O)(=O)C1CC1 [Compound I-167, N2-(4-aminosulfonyl)phenyl-N4-[4-(N-cyclopropylsulfonyl-N-propionyl)aminomethyl]phenyl-5-methyl-2,4-pyrimidinediamine]
- IC50 [1]: 116 nM
- IC50 [2]: 132 nM
- IC50 [3]: 587 nM

Structure (SMILES): Cc1cnc(Nc2cccc(S(=O)(=O)NCc3ccncc3)c2)nc1Nc1ccc(CNS(=O)(=O)C2CC2)cc1 [Compound I-169, N4-(4-cyclopropylsulfonylaminomethyl)phenyl-5-methyl-N2-[3-(4-pyridylmethyl)aminosulfonyl]phenyl-2,4-pyrimidinediamine]
- IC50 [1]: 206 nM
- IC50 [2]: 140 nM
- IC50 [3]: 478 nM

Structure (SMILES): Cc1cnc(Nc2cccc(S(=O)(=O)NC3CCCC3)c2)nc1Nc1ccc(CNS(=O)(=O)C2CC2)cc1 [Compound I-170, N2-(3-cyclopentylaminosulfonyl)phenyl-N4-(4-cyclopropylsulfonylaminomethyl)phenyl-5-methyl-2,4-pyrimidinediamine]
- IC50 [1]: 172 nM
- IC50 [2]: 136 nM
- IC50 [3]: 238 nM

Structure (SMILES): Cc1cnc(Nc2ccc(S(=O)(=O)NC(C)C)cc2)nc1Nc1ccc(CNS(=O)(=O)C2CC2)cc1 [Compound I-172, N4-(4-cyclopropylsulfonylaminomethyl)phenyl-N2-(4-isopropylaminosulfonyl)phenyl-5-methyl-2,4-pyrimidinediamine]
- IC50 [1]: 81 nM
- IC50 [2]: 52.1 nM
- IC50 [3]: 123 nM

Structure (SMILES): CCCNS(=O)(=O)c1ccc(Nc2ncc(C)c(Nc3ccc(CNS(=O)(=O)C4CC4)cc3)n2)cc1 [Compound I-177, N4-(4-cyclopropylsulfonylaminomethyl)phenyl-5-methyl-N2-(4-propylaminosulfonyl)phenyl-2,4-pyrimidinediamine]
- IC50 [1]: 160 nM
- IC50 [2]: 17.7 nM
- IC50 [3]: 107 nM

Structure (SMILES): Cc1cnc(Nc2ccc(S(=O)(=O)NCC3CC3)cc2)nc1Nc1ccc(CNS(=O)(=O)C2CC2)cc1 [Compound I-179, N2-(4-cyclopropylmethylaminosulfonyl)phenyl-N4-(4-cyclopropylsulfonylaminomethyl)phenyl-5-methyl-2,4-pyrimidinediamine]
- IC50 [1]: 290 nM
- IC50 [2]: 45.9 nM
- IC50 [3]: 365 nM

Structure (SMILES): COCCNS(=O)(=O)c1ccc(Nc2ncc(C)c(Nc3ccc(CNS(=O)(=O)C4CC4)cc3)n2)cc1 [Compound I-183, N4-(4-cyclopropylsulfonylaminomethyl)phenyl-N2-[4-(2-methoxyethyl)aminosulfonyl]phenyl-5-methyl-2,4-pyrimidinediamine]
- IC50 [1]: 155 nM
- IC50 [2]: 66.7 nM
- IC50 [3]: 207 nM

Structure (SMILES): Cc1ccc(Nc2ncc(C)c(Nc3cccc(CNS(=O)(=O)C4CC4)c3)n2)cc1S(=O)(=O)NC(C)C [Compound I-209, N4-(3-cyclopropylsulfonylaminomethyl)phenyl-N2-(3-isopropylaminosulfonyl-4-methyl)phenyl-5-methyl-2,4-pyrimidinediamine]
- IC50 [1]: 131 nM
- IC50 [2]: 113 nM
- IC50 [3]: 529 nM

Structure (SMILES): CNS(=O)(=O)c1cc(Nc2ncc(C)c(Nc3cccc(CNS(=O)(=O)C4CC4)c3)n2)ccc1C [Compound I-211, N4-(3-cyclopropylsulfonylaminomethyl)phenyl-5-methyl-N2-(4-methyl-3-methylaminosulfonyl)phenyl-2,4-pyrimidinediamine]
- IC50 [1]: 48.2 nM
- IC50 [2]: 103 nM
- IC50 [3]: 177 nM

Structure (SMILES): CCNS(=O)(=O)c1ccc(Nc2ncc(C)c(Nc3cccc(CNS(=O)(=O)C4CC4)c3)n2)cc1 [Compound I-212, N4-(3-cyclopropylsulfonylaminomethyl)phenyl-N2-(4-ethylaminosulfonyl)phenyl-5-methyl-2,4-pyrimidinediamine]
- IC50 [1]: 160 nM
- IC50 [2]: 236 nM
- IC50 [3]: 215 nM

Structure (SMILES): CCNS(=O)(=O)c1cc(Nc2ncc(C)c(Nc3cccc(CNS(=O)(=O)C4CC4)c3)n2)ccc1C [Compound I-213, N4-(3-cyclopropylsulfonylaminomethyl)phenyl-N2-(3-ethylaminosulfonyl-4-methyl)phenyl-5-methyl-2,4-pyrimidinediamine]
- IC50 [1]: 91.8 nM
- IC50 [2]: 88.2 nM
- IC50 [3]: 125 nM

Structure (SMILES): C#CCNS(=O)(=O)c1cc(Nc2ncc(C)c(Nc3cccc(CNS(=O)(=O)C4CC4)c3)n2)ccc1C [Compound I-214, N4-(3-cyclopropylsulfonylaminomethyl)phenyl-5-methyl-N2-(4-methyl-3-propargylaminosulfonyl)phenyl-2,4-pyrimidinediamine]
- IC50 [1]: 136 nM
- IC50 [2]: 162 nM
- IC50 [3]: 190 nM

Structure (SMILES): CCCNS(=O)(=O)c1cc(Nc2ncc(C)c(Nc3cccc(CNS(=O)(=O)C4CC4)c3)n2)ccc1C [Compound I-215, N4-(3-cyclopropylsulfonylaminomethyl)phenyl-5-methyl-N2-(4-methyl-3-propylaminosulfonyl)phenyl-2,4-pyrimidinediamine]
- IC50 [1]: 116 nM
- IC50 [2]: 132 nM
- IC50 [3]: 385 nM

Structure (SMILES): Cc1ccc(Nc2ncc(C)c(Nc3cccc(CNS(=O)(=O)C4CC4)c3)n2)cc1S(=O)(=O)NCC1CC1 [Compound I-216, N2-(3-cyclopropylmethylaminosulfonyl-4-methyl)phenyl-N4-(3-cyclopropylsulfonylaminomethyl)phenyl-5-methyl-2,4-pyrimidinediamine]
- IC50 [1]: 154 nM
- IC50 [2]: 161 nM
- IC50 [3]: 590 nM

Structure (SMILES): COCCCNS(=O)(=O)c1cc(Nc2ncc(C)c(Nc3cccc(CNS(=O)(=O)C4CC4)c3)n2)ccc1C [Compound I-217, N4-(3-cyclopropylsulfonylaminomethyl)phenyl-N2-[3-(3-methoxypropyl)aminosulfonyl-4-methyl]phenyl-5-methyl-2,4-pyrimidinediamine]
- IC50 [1]: 129 nM
- IC50 [2]: 80.2 nM
- IC50 [3]: 496 nM

Structure (SMILES): Cc1cnc(Nc2cccc(S(N)(=O)=O)c2)nc1Nc1ccc2c(c1)CCN(S(=O)(=O)C1CC1)C2 [II-2, N2-(3-aminosulfonyl)phenyl-N4-[(N-cyclopropylsulfonyl)-1,2,3,4-tetrahydroisoquinolin-6-yl]-5-methyl-2,4-pyrimidinediamine]
- IC50 [1]: 30.4 nM
- IC50 [2]: 7.75 nM
- IC50 [3]: 107 nM

Structure (SMILES): Cc1ccc(Nc2ncc(C)c(Nc3ccc4c(c3)CN(S(=O)(=O)C3CC3)C4)n2)cc1S(N)(=O)=O [II-7, N2-(3-Aminosulfonyl-4-methylphenyl)-N4-[(2-cyclopropylsulfonyl)-isoindolin-5-yl]-5-methyl-2,4-pyrimidinediamine]
- IC50 [1]: 155 nM
- IC50 [2]: 130 nM
- IC50 [3]: 652 nM

Structure (SMILES): Cc1cnc(Nc2ccc(S(N)(=O)=O)cc2)nc1Nc1ccc2c(c1)CN(S(=O)(=O)C1CC1)C2 [II-9, N2-(4-Aminosulfonyl-phenyl)-N4-[(2-cyclopropylsulfonyl)-isoindolin-5-yl]-5-methyl-2,4-pyrimidinediamine]
- IC50 [1]: 277 nM
- IC50 [2]: 118 nM
- IC50 [3]: 1110 nM
